US20140296223A1, “METHOD FOR REGULATING SKIN PIGMENTATION” (THE GENERAL HOSPITAL CORPORATION, priority 2011, published 2014)

Experiments:
[1] = test system: Microphthalmia Transcription Factor (MITF); test: TRPM1-luciferase reporter screen for MITF antagonists in Skme15 melanoma cells; assay type: cell-based, human; conditions: for IC50: IC50 (described formally as qAC50), half-maximal suppression dose, unit inferred, text says potencies around 1 uM; for Conc. At Maximal Activity / Maximal Activity: dose titration; for Conc. At Maximal Activity: unit not given, in M (unit assumed); for Maximal Activity: maximal suppression of TRPM1-luciferase at any dose; for Z-Score: screen, suppression of TRPM1-luciferase activity, Skme15 cells
Text: In order to carry out a successful MITF antagonist screen, the inventors utilized a TRPM1-luciferase reporter. […] Therefore, the TRPM1-luciferase reporter stably integrated into melanoma cells is effective for the screening assay. The use of melanoma cells, while less perfectly relevant than primary human melanocytes, afforded the advantages of speed and reproducibility for the screen.
In order to engineer a screen which broadly suppress MITF activity either by suppression of MITF expression or by inhibition of MITF activity, the inventors utilized a luciferase reporter containing the promoter of a strong direct transcriptional target of MITF, i.e., TRPM1 gene, the inventors have identified the active ingredients having the ability of inhibiting the expression or activation of Microphthalmia Transcription Factor (MITF) for medical or esthetic benefit. The inventors have previously identified the TRPM1 gene (also called “Melastatin”) as a direct target of MITF, which contains numerous MITF binding sites, and which directly responds in potent fashion to MITF overexpression (Miller A J, Du J, Rowan S, Hershey C L, Widlund H R, Fisher D E: Transcriptional regulation of the melanoma prognostic marker melastatin (TRPM1) by MITF in melanocytes and melanoma, Cancer Res 2004, 64:509-516). TRPM1 expression also correlates closely to MITF expression within human melanoma cell lines, as well as in clinical pigmented lesions (nevi and melanomas).
The TRPM1 promoter was ligated to the luciferase gene and inserted into a retroviral vector as well as a lentiviral vector. The lentiviral vector was used to infect primary human melanocytes, which then was subjected to a primary screen using the Broad Chemical Genetics core screening facility, and its natural products/extracts libraries. As backup, the retroviral vector was used to stably integrate into the genome of melanoma cells, which can be used for the identical small molecule screen. Screen optimization was carried out using forskolin and MSH as positive control small molecules (which upregulate cAMP and MITF expression (D'Orazio J A, Nobuhisa T, Cui R, Arya M, Spry M, Wakamatsu K, Igras V, Kunisada T, Granter S R, Nishimura E K, Ito S, Fisher D E: Topical drug rescue strategy and skin protection based on the role of Mc1r in UV-induced tanning, Nature 2006, 443:340-344)). Small molecules which suppress MSH induced TRPM1-luciferase without altering cell numbers or viability, represent initial “hits” in this screen. Negative control includes a constitutive luciferase vector within the same cells (eg driven by a constitutive promoter such as thymidine kinase promoter), to control for nonspecific inhibitors of basal transcriptional machinery-something which would otherwise be assessed in detail during secondary/tertiary analyses of candidate hits.
The human melanoma cell line Skme15 was utilized due to the advantageous growth properties as well as the inventors' prior experience that Skme15 expresses a typical level of MITF protein. […] Therefore, an integrated TRPM1-luciferase reporter was generated, and the subsequent cells were cloned twice (serially) to assure purity of the reporter cell population. Cells were maintained in drug selection to assure maintenance of the luciferase reporter (when drug was omitted, eventual loss of the luciferase signal was observed). Following re-cloning, distinct isolates were selected for further use on the basis of clonogenic growth on 384 well plates, as required for the small molecule screen. A positive control for suppression of TRPM1-luciferase signal utilized: a lentivirus encoding shRNA against MITF. […] The day-to-day variability in plating efficiency was analyzed, and found very high reproducibility in the line which was selected for further use in the screen.
The screen was carried out with a library from the Broad Institute comprising a mixture of natural products, known bioactives, and additional compounds (a total of about 13,000 compounds). […]

[2] = test system: Skme15; test: Toxicity with fluorescence viability probe (CellTiter-Fluo Cell Viability Assay); assay type: cell-based, human; conditions: composite of the variation between drug-treated and control divided by the standard error
Experimental: Although the shape of the dose-response can vary among hits, the inventors chose to include all candidates which produce dose-dependent effects. The fourth criterion which was determined is the IC50 (described formally as qAC50) which represents the half-maximal suppression dose. Most of the candidate hits resided in the high nanomolar to low micromolar range by this criterion (all of these validation data are listed in Table 1). The fifth criterion was maximal suppression (at any dose), which represented the magnitude of suppression which was attainable regardless of the dose required to achieve it. […] The sixth criterion to be determined is the Log P partition coefficient, which is a predictor of lipophilicity. For this, the inventors have used the method of Ghose and Crippen to calculate the predicted octanol-water partition coefficient (J. Comp. Chem. 9, 80(1988)). While this is only an estimate of potential skin penetration, the analysis was carried out because it helps in prioritizing likelihood of topical effectiveness, in theory. The seventh criterion was an analysis of toxicity utilizing a fluorescence viability probe (CellTiter-Fluo™ Cell Viability Assay (Promega)). Interpretation of this endpoint is complicated by the fact that it represents a composite of the variation between drug-treated and control divided by the standard error The results shown in Table 1 indicate 34 candidate molecules which satisfied all of the criteria outlined above. […] Most of their potencies ranged slightly below or above 1 uM. While the lipophilicity scores remain imperfect predictors of skin penetration capability. However, numbers of >3 can be more likely to penetrate.

Compound	IC50 [1]	Conc. At Maximal Activity [1]	Maximal Activity [1]	Z-Score [1]	Viability z-score (treated minus control, divided by standard error) [2]
Cc1ccc(C23C[C@@H]4C[C@@H](CC(CN)(C4)C2)C3)cc1C [1-[(1S,3R,5R,7S)-3-(3,4-dimethylphenyl)adamantan-1-yl]methanamine]	2.48 µM	6.00E−06	−149	−10.8562	−1.015
COc1ccc2c(c1)OC1COc3cc(OC)c(OC)cc3C1C2=O (stereo not drawn) [2,3,9-trimethoxy-6a,12a-dihydrochromoeo[3,4-b]chromen-12(6H)-one]	5.38 µM	1.20E−05	−320.4	−9.245	−4.2731
COc1ccc([N+](=O)[O-])cc1NC(=O)COc1ccc(C(C)(C)C)cc1Br [2-(2-bromo-4-tert-butylphenoxy)-N-(2-methoxy-5-nitrophenyl)acetamide]				−12.0562	−1.6406
Cc1oc2c(c1C(=O)N1CCC(C)CC1)C(=O)c1ccccc1C2=O [2-methyl-3-[(4-methylpiperidin-1-yl)carbonyl]naphtho[2,3-b]furan-4,9-dione]				−9.924	0.1575
O=C(O)CCSc1nc2ccccc2s1 [3-(1,3-benzothiazol-2-ylthio)propanoic acid]				−9.79	−1.5092
O=C(O)c1cccc(COc2ccc(CO)cc2Cl)c1 [3-{[2-chloro-4-(hydroxymethyl)phenoxy]methyl}benzoic acid]				−9.909	−1.5092
COc1cc(CO)ccc1OCc1cccc(C(=O)O)c1 [3-{[4-(hydroxymethyl)-2-methoxyphenoxy]methyl}benzoic acid]				−10.9296	−1.6406
Cc1ccc(OCC(=O)Nc2cccc(C(=O)O)c2)c(Br)c1 [3-{[(2-bromo-4-methylphenoxy)acetyl]amino}benzoic acid]				−10.0837	−1.5092
CCOc1ccc(OCC(=O)Nc2cccc(C(=O)O)c2)cc1 [3-{[(4-ethoxyphenoxy)acetyl]amino}benzoic acid]				−9.9	−1.5092
COc1cc(C(=O)Nc2cc(-c3nc4ncccc4o3)ccc2C)ccc1OCc1ccc(Cl)cc1 [4-[(4-chlorobenzyl)oxy]-3-methoxy-N-(2-methyl-5-[1,3]oxazolo[4,5-b]pyridin-2-ylphenyl)benzamide]				−9.256	
Clc1ccc(C2=NN=C(N3CCCC3)SC2)cc1 [5-(4-chlorophenyl)-2-pyrrolidin-1-yl-6H-1,3,4-thiadiazine]				−9.961	−0.2442
CC(C)(C)c1ccc(C(=O)N2CCN(c3ccc([N+](=O)[O-])c(NCc4cccnc4)c3)CC2)cc1 [5-[4-(4-tert-butylbenzoyl)piperazin-1-yl]-2-nitro-N-(pyridin-3-ylmethyl)aniline]				−9.588	−0.8893
Cc1ccc(C)c(C(Nc2ccccn2)c2cc(Cl)c3cccnc3c2O)c1 (stereo not drawn) [5-chloro-7-[(2,5-dimethylphenyl)(pyridin-2-ylamino)methyl]quinolin-8-ol]				−8.461	−0.8893
Oc1c(C(Nc2ccccn2)c2c(F)cccc2Cl)cc(Cl)c2cccnc12 (stereo not drawn) [5-chloro-7-[(2-chloro-6-fluorophenyl)(pyridin-2-ylamino)methyl]quinolin-8-ol]				−9.327	−2.226
c1ccc(-c2cnc3nonc3n2)cc1 [5-phenyl[1,2,5]oxadiazolo[3,4-b]pyrazine]				−9.989	−0.0206
O=c1[nH]c(=O)n(Cc2ccco2)c2c1C(C(F)(F)F)(C(F)(F)F)N=C(c1ccc(F)cc1)N2 [7-(4-fluorophenyl)-1-(2-furylmethyl)-5,5-bis(trifluoromethyl)-5,8-dihydropyrimido[4,5-d]pyrimidine-2,4(1H,3H)-dione]				−8.791	−2.0352
CC(C)(C)[C@H]1CC[C@@]2(CC1)[C@@H](C#N)[C@]2(C#N)C(=O)c1ccccc1 [(1S,2R,3S,6S)-1-benzoyl-6-tert-butylspiro[2.5]octane-1,2-dicarbonitrile]	5.69 µM	1.95E−05	−274.1	−11.0899	0.4824
CCOC(=O)c1c(C)n(Cc2ccccc2)c2ccc(OCC(O)CNC(C)(C)C)cc12 (stereo not drawn) [Ethyl-1-benzyl-5-[3-(tert-butylamino)-2-hydroxypropoxy]-2-methyl-1H-indole-3-carboxylate]				−7.844	−2.519
CCOC(=O)COc1cccc(-c2nc3ccccc3s2)c1 [Ethyl-[3-(1,3-benzothiazol-2-yl)phenoxy]acetate]				−9.663	−0.0206
Cc1cccc(-c2nnc(SCC(=O)Nc3ccccc3F)o2)c1 [N-(2-fluorophenyl)-2-{[5-(3-methylphenyl)-1,3,4-oxadiazol-2-yl]thio}acetamide]				−10.7661	−0.0206
O=C(NCCCc1ccccc1)N1c2ccccc2Sc2ccccc21 [N-(3-phenylpropyl)-10H-phenothiazine-10-carboxamide]				−9.495	−4.128
O=C(CSc1nc2cc([N+](=O)[O-])ccc2[nH]1)Nc1cc(C(F)(F)F)cc(C(F)(F)F)c1 [N-[3,5-bis(trifluoromethyl)phenyl]-2-[(5-nitro-1H-benzimidazol-2-yl)thio]acetamide]				−10.0284	
